From patent US6946459B2, “CRYSTALLINE FORMS OF 1S-[1ALPHA(2S*,3R*), 9ALPHA]6, 10-DIOXO-N-(2-ETHOXY-5-OXO-TETRAHYDRO-3-FURANYL)-9[[(1-ISOQUINOLYL) CARBONYL]AMINO]OCTAHYDRO-6H-PIRIDAZINO[1,2-A][1,2]DIAZEPIN-1-CARBOXAMIDE” (Aventis Pharma S. A., priority 1998, dated 2005)
“Also recorded” adds a separate entry of the source.

Columns and labels:
[1] = Sample left 7 days in a chamber at 96% relative humidity (32° C.); type: physicochemical; details: 7 days at 96% relative humidity; for Hygroscopicity (in words): compared with form A
Experimental: The non-hygroscopicity was confirmed by leaving a sample for 7 days in a chamber at 96% relative humidity (at 32° C.) An absorption of water of approximately 0.15% was observed. […] The same situation pertains regarding the amorphous form.

[2] = Hygroscopicity curve (water sorption isotherm), Dynamic Vapor Sorption DVS 1; type: physicochemical; parameters: Sorption / Desorption: unit not given here; details: for Hygroscopicity (in words): sorption cycle / general statement
Experimental: Hygroscopicity Curve (or Water Sorption Isotherm)
The water sorption isotherms were obtained using a Dynamic Vapor Sorption DVS 1 device (Surface Measurements System Ltd) at a constant temperature and under a more or less hydrated nitrogen atmosphere. The degree of relative humidity (RH) of the atmosphere was modified in stages. The passage from one stage to the next is carried out when the weight of the sample to be analyzed has reached a constant value.

[3] = RH 0.0 %, water sorption isotherm, constant temperature
[4] = RH 0.0 %, water sorption isotherm, constant temperature, water uptake (%)

For `CCO[C@@H]1OC(=O)C[C@@H]1NC(=O)[C@@H]1CCCN2C(=O)CC[C@H](NC(=O)c3nccc4ccccc34)C(=O)N12` [form A], the Absorption of water [1] was “approximately 0.15%”, the Desorption [2, 3] was 0.11 and the Sorption [2, 4] was 0.00. For the same compound, the Desorption ([2]; RH 12.0 %) was 0.12, the Sorption ([2]; RH 12.0 %) was 0.03 and the Desorption ([2]; RH 21.0 %) was 0.14. The Sorption ([2]; RH 21.0 %) was 0.05, the Desorption ([2]; RH 32.0 %) was 0.19 and the Sorption ([2]; RH 32.0 %) was 0.07. The Desorption ([2]; RH 43.0 %) was 0.21, the Sorption ([2]; RH 43.0 %) was 0.09 and the Desorption ([2]; RH 51.0 %) was 0.22. For the same compound, the Sorption ([2]; RH 51.0 %) was 0.11, the Desorption ([2]; RH 57.0 %) was 0.21 and the Sorption ([2]; RH 57.0 %) was 0.13. The Desorption ([2]; RH 66.0 %) was 0.21, the Sorption ([2]; RH 66.0 %) was 0.14 and the Desorption ([2]; RH 75.0 %) was 0.21. It also gave a Sorption ([2]; RH 75.0 %) of 0.14, a Desorption ([2]; RH 80.0 %) of 0.21 and a Sorption ([2]; RH 80.0 %) of 0.16. The Desorption ([2]; RH 90.0 %) was 0.19, the Sorption ([2]; RH 90.0 %) was 0.14 and the Desorption ([2]; RH 96.0 %) was 0.06. The Sorption ([2]; RH 96.0 %) was 0.06, the “Hygroscopicity (in words)” value [2] was “absence of hygroscopicity; also recorded: not hygroscopic” and the “Water uptake during the sorption cycle” value ([2]; whole sorption cycle, RH 0 to 96 %) was < 0.2%.
For `CCO[C@@H]1OC(=O)C[C@@H]1NC(=O)[C@@H]1CCCN2C(=O)CC[C@H](NC(=O)c3nccc4ccccc34)C(=O)N12` [form B, 1S-[1alpha (2R, 3S), 9alpha]6,10-dioxo-N-(2-ethoxy-5-oxo-tetrahydro-3-furanyl)-9[[(1-isoquinolyl)carbony]amino]octahydro-6H-pyridazino[1,2-a][1,2]diazepin-1-carboxamide], the Absorption of water [1] was 7%, the “Hygroscopicity (in words)” value [1] was “more hygroscopic” and the Desorption [2, 3] was −0.11. It also gave a Sorption [2, 4] of 0.00, a Desorption ([2]; RH 12.0 %) of 1.42 and a Sorption ([2]; RH 12.0 %) of 1.41. It also gave a Desorption ([2]; RH 21.0 %) of 2.33, a Sorption ([2]; RH 21.0 %) of 2.36 and a Desorption ([2]; RH 32.0 %) of 3.14. The Sorption ([2]; RH 32.0 %) was 3.23, the Desorption ([2]; RH 43.0 %) was 3.75 and the Sorption ([2]; RH 43.0 %) was 3.88. For the same compound, the Desorption ([2]; RH 51.0 %) was 4.13, the Sorption ([2]; RH 51.0 %) was 4.26 and the Desorption ([2]; RH 57.0 %) was 4.40. The Sorption ([2]; RH 57.0 %) was 4.53, the Desorption ([2]; RH 66.0 %) was 4.75 and the Sorption ([2]; RH 66.0 %) was 4.92. It also gave a Desorption ([2]; RH 75.0 %) of 5.08, a Sorption ([2]; RH 75.0 %) of 5.27 and a Desorption ([2]; RH 80.0 %) of 5.30. The Sorption ([2]; RH 80.0 %) was 5.45, the Desorption ([2]; RH 90.0 %) was 5.96 and the Sorption ([2]; RH 90.0 %) was 5.93. It also gave a Desorption ([2]; RH 96.0 %) of 6.86 and a Sorption ([2]; RH 96.0 %) of 6.86.
With `CCO[C@@H]1OC(=O)C[C@@H]1NC(=O)[C@@H]1CCCN2C(=O)CC[C@H](NC(=O)c3nccc4ccccc34)C(=O)N12` [AMORPHOUS, 1S-[1alpha(2R, 3S), 9alpha]6, 10-dioxo-N-(2-ethoxy-5-oxo-tetrahydro-3-furanyl)-9[[(1-isoquinolyl)carbonyl]amino]octahydro-6H-pyridazino[1,2-a][1, 2]diazepin-1-carboxamide, reference compound] the “Hygroscopicity (in words)” value [1] was “more hygroscopic”, the Desorption [2, 3] was −0.20 and the Sorption [2, 4] was 0.00. It also gave a Desorption ([2]; RH 12.0 %) of 1.43, a Sorption ([2]; RH 12.0 %) of 0.67 and a Desorption ([2]; RH 21.0 %) of 2.09. It also gave a Sorption ([2]; RH 21.0 %) of 0.97, a Desorption ([2]; RH 32.0 %) of 2.58 and a Sorption ([2]; RH 32.0 %) of 1.29. The Desorption ([2]; RH 43.0 %) was 2.94, the Sorption ([2]; RH 43.0 %) was 1.60 and the Desorption ([2]; RH 51.0 %) was 3.19. It also gave a Sorption ([2]; RH 51.0 %) of 1.83, a Desorption ([2]; RH 57.0 %) of 3.35 and a Sorption ([2]; RH 57.0 %) of 2.03. It also gave a Desorption ([2]; RH 66.0 %) of 3.61, a Sorption ([2]; RH 66.0 %) of 2.37 and a Desorption ([2]; RH 75.0 %) of 3.90. The Sorption ([2]; RH 75.0 %) was 2.90, the Desorption ([2]; RH 80.0 %) was 4.12 and the Sorption ([2]; RH 80.0 %) was 3.71. For the same compound, the Desorption ([2]; RH 90.0 %) was 4.94, the Sorption ([2]; RH 90.0 %) was 5.11 and the Desorption ([2]; RH 96.0 %) was 5.93. The Sorption ([2]; RH 96.0 %) was 5.93 and the “Hygroscopicity (in words)” value ([2]; listed as Compound (I)) was “hygroscopic”.
